Entries after “also recorded” stand apart in the source; their conditions may differ. Residues, ends and D or L forms follow the SMILES beside them. *: point of attachment. Cbz = O=C(OCc1ccccc1)*; CH2F = FC*
Tests used:
proliferating PC12 cells = proliferating PC12 cells (Park et al., 1996a); cited from earlier work
sympathetic neurons [1] = assay: Survival of sympathetic neurons depleted of SOD1 (V-ASOD1 plus SNAP); assay type: cell-based, rat
Procedure: (§1) The cells were plated onto collagen-coated 24-well dishes at a density of approximately 0.5 ganglia per well and maintained in RPMI 1640 medium supplemented with 10% heat-inactivated horse serum and 60 ng/ml mouse NGF for a period of three days prior to the survival experiment. A mixture of uridine and 5-fluorodeoxyuridine (10 mM each) was also added to eliminate non-neuronal cells on day two. No pretreatment with survival agent, unless otherwise noted, was necessary for effective survival of neurons exposed to AraC. In the case of UV irradiation, the neurons died quite rapidly. Accordingly, neuronal cultures were pretreated overnight (18 hr) with survival-promoting agents prior to UV irradiation. NGF deprivation was performed by washing with NGF-free medium and addition of anti-NGF antiserum as previously described (Park et al., 1996a). V-ASOD1 oligonucleotides, in conjunction with the nitric oxide generator, S-nitrosopenicillamine (SNAP; 100 μM) were added to the cultured sympathetic neurons as previously described (Troy et al., 1997). At appropriate times, the numbers of viable, phase bright neurons were determined by strip counting as previously described (Rydel and Greene; 1988). All experimental points are expressed relative to the original number of neurons present in each well and are reported as mean+/−SEM (n=3).

sympathetic neurons [2] = assay: Survival of sympathetic neurons treated with AraC; assay type: cell-based; conditions: for survival of AraC-treated sympathetic neurons: NGF present, flavopiridol 1 mM, olomoucine 200 mM (printed, FIG. 8), isoolomoucine 200 μM, aphidicolin 10 μM; for maximal concentration required to protect from AraC: day 3; for toxicity of the CDK inhibitors to sympathetic neurons: beyond five days, even without AraC treatment
Procedure: A mixture of uridine and 5-fluorodeoxyuridine (10 mM each) was also added to eliminate non-neuronal cells on day two. No pretreatment with survival agent, unless otherwise noted, was necessary for effective survival of neurons exposed to AraC. In the case of UV irradiation, the neurons died quite rapidly. Accordingly, neuronal cultures were pretreated overnight (18 hr) with survival-promoting agents prior to UV irradiation. […] All experimental points are expressed relative to the original number of neurons present in each well and are reported as mean+/−SEM (n=3).

neuronal PC12 cells = assay: Survival of neuronal PC12 cells depleted of SOD1 (Example 2); assay type: cell-based, rat
Procedure: Naive PC12 cells were cultured and passaged as previously described (Greene and Tischler, 1976). Neuronally-differentiated PC12 cells were generated by exposing PC12 cells to NGF in serum-free RPMI 1640 medium for 8-9 days. For survival experiments, neuronally-differentiated PC12 cells were plated onto collagen-coated 24-well tissue culture dishes at a density of approximately 2×10^5 cells per well. Neuronally-differentiated PC12 cells were cultured in serum-free RPMI 1640 medium containing NGF (100 ng/ml) throughout the course of survival experiments. At appropriate times of culture under the conditions described in the text, cells were lysed and the numbers of viable cells was evaluated as previously described (Rukenstein et al., 1991). All experimental points are expressed as a percentage of cells plated on day 0 and are reported as mean +/−SEM (n=3).

sympathetic neurons [3] = assay: Survival of sympathetic neurons deprived of NGF (Example 2); assay type: cell-based, rat; conditions: for death of sympathetic neurons deprived of NGF: CDK inhibitors, same experiments as SOD1 depletion (FIG. 10)
Procedure: as §1

sympathetic neurons [4] = assay: Survival of sympathetic neurons exposed to UV irradiation; assay type: cell-based, rat; conditions: for survival of UV-treated sympathetic neurons: NGF present, pretreated before UV, flavopiridol 1 mM (sic, FIG. 6A), olomoucine 200 μM, isoolomoucine 200 μM, aphidicolin 10 μM; for concentration of maximal protection: UV-treated, day 1
Procedure: Cells were exposed to UV irradiation using the Stratolinker UV crosslinker (Stratagene®). Sympathetic neurons were exposed to 3×10^4 μJ while neuronal PC12 cells were exposed to […]. Each well was exposed with 200 μl of medium containing NGF with or without the appropriate drug. After irradiation 300 μl of additional medium containing NGF with or without drug was added.
as §1

PC12 cells [5] = assay: PC12 cell survival after SOD1 down-regulation by V-ASOD1; assay type: cell-based, rat
Procedure: (§2) PC12 cells were grown as previously described (Greene and Tishcler, 1976) on rat-tail collagen-coated dishes in RPMI 1640 medium containing 5% fetal calf serum and 10% heat-inactivated horse serum (complete medium). NGF primed PC12 cells were grown for at least 7 days in RPMI 1640 medium plus 1% horse serum and NGF (100 ng/ml). For cell survival assays involving trophic factor deprivation, cells (either naive or NGF-pretreated) were extensively washed in serum-free RPMI 1640 medium and re-plated on fresh collagen-coated 24-well dishes as previously described (Rukenstein et al., 1991) in RPMI 1640 medium lacking serum or NGF. For SOD1 down-regulation survival assays, cells were re-plated in complete medium with V-ASOD1 (vector linked antisense oligonucleotide to SOD1, 50 nM). Various concentrations of ICE inhibitors were included in the medium as indicated. Numbers of viable cells per culture were determined by quantifying intact nuclei as previously described (Rukenstein et al., 1991). Counts were performed in triplicate and reported as means±SEM.

sympathetic neurons [6] = assay: Survival of cultured sympathetic neurons after NGF withdrawal (Example 1); assay type: cell-based, rat
Procedure: Sympathetic neuron cultures were prepared from 2 day old rat pups, as previously described (Ferrari et al., 1995). Cultures were grown in 24-well collagen coated dishes in RPMI 1640 medium plus 10% horse serum with mouse NGF (100 ng/ml). One day following plating, uridine and 5-fluorodeoxyuridine (10 μM each) were added to the cultures and left for three days to eliminate non-neuronal cells. On the sixth day following plating NGF was removed by washing the cultures three times with RPMI 1640 medium plus 10% horse serum, followed by the addition of medium containing anti-mouse NGF (1:200, Sigma) with or without ICE inhibitors. Each culture was scored, as previously described (Rydel and Greene, 1988), as numbers of living, phase-bright neurons at various times. Three replicate cultures were assessed for each condition and data were normalized to numbers of neurons present in each culture at the time of NGF withdrawal and reported as mean±SEM.

PC12 cells [7] = assay: PC12 cell survival after withdrawal of serum/NGF (trophic factor deprivation); assay type: cell-based, rat
Procedure: as §2

IL-1β = assay: Assay of IL-1β secreted by PC12 cells (ELISA); assay type: cell-based, rat; conditions: 24 h
Procedure: IL-1β was quantified by ELISA using the Intertest-1βX kit (Genzyme, Cambridge, Mass.). PC12 cells were grown as described above, on 24-well plates, in 500 μl of medium. After one day incubation, medium was removed and IL-1β measured following the manufacturer's instructions, and number of viable cells in each well quantified.

sympathetic neurons [8] = assay: Survival of sympathetic neurons exposed to camptothecin; assay type: cell-based, rat; conditions: V-linked peptides

CN1CC[C@H](c2c(O)cc(O)c3c(=O)cc(-c4ccccc4Cl)oc23)[C@H](O)C1 [flavopiridol]
minimum concentration required to fully inhibit DNA synthesis (proliferating PC12 cells): 1 µM
protection of sympathetic neurons depleted of SOD1 (sympathetic neurons [1]; ASOD1 50 nM with SNAP 100 μM): neither flavopiridol nor olomoucine protected
survival of AraC-treated sympathetic neurons (sympathetic neurons [2]; AraC 100 μM): quite effectively promoted long term survival
maximal concentration required to protect from AraC (sympathetic neurons [2]; AraC 100 μM): 1 µM
toxicity of the CDK inhibitors to sympathetic neurons (sympathetic neurons [2]): toxicity
death of neuronal PC12 cells depleted of SOD1 (neuronal PC12 cells): failed to inhibit death
death of sympathetic neurons deprived of NGF (sympathetic neurons [3]): effectively blocked the death
survival of UV-treated sympathetic neurons (sympathetic neurons [4]): effectively promoted survival
concentration of maximal protection (sympathetic neurons [4]): 1 to 3 µM

Cn1cnc2c(NCc3ccccc3)nc(NCCO)nc21 [olomoucine, 2-(2-hydroxyethylamino)-6-benzylamino-9-methylpurine]
minimum concentration required to fully inhibit DNA synthesis (proliferating PC12 cells): 200 µM
protection of sympathetic neurons depleted of SOD1 (sympathetic neurons [1]; ASOD1 50 nM with SNAP 100 μM): neither flavopiridol nor olomoucine protected
survival of AraC-treated sympathetic neurons (sympathetic neurons [2]; AraC 100 μM): quite effectively promoted long term survival
maximal concentration required to protect from AraC (sympathetic neurons [2]; AraC 100 μM): 200 µM
toxicity of the CDK inhibitors to sympathetic neurons (sympathetic neurons [2]): toxicity
death of neuronal PC12 cells depleted of SOD1 (neuronal PC12 cells): failed to inhibit death
death of sympathetic neurons deprived of NGF (sympathetic neurons [3]): effectively blocked the death
survival of UV-treated sympathetic neurons (sympathetic neurons [4]): effectively promoted survival
concentration of maximal protection (sympathetic neurons [4]): 200 µM

C[C@@]1(CO)[C@H](O)CC[C@@]2(C)[C@H]1CC[C@H]1C[C@@H]3C[C@@]12CC[C@]3(O)CO [aphidicolin]
survival of AraC-treated sympathetic neurons (sympathetic neurons [2]; AraC 100 μM): failed to block death
survival of UV-treated sympathetic neurons (sympathetic neurons [4]): failed to block death

COC(=O)C[C@H](NC(=O)[C@H](C)NC(=O)[C@@H](NC(=O)OCc1ccccc1)C(C)C)C(=O)CF [ZVAD-FMK, ZVAD-fluoromethylketone] (Cbz-Val-Ala-Asp(OMe)-CH2F)
protection of sympathetic neurons depleted of SOD1 (sympathetic neurons [1]; 50 μM, exposed to nitric oxide generators): protected
survival of sympathetic cultures exposed to AraC (sympathetic neurons [2]; 50 μM, AraC 100 μM): ineffective
dose required for maximal protection (PC12 cells [5]; V-ASOD1 50 nM, one day): 6 µM
protection from NGF deprivation (sympathetic neurons [6]; 100 μM): protected
protection from death due to NGF-depletion (sympathetic neurons [3]; 50 μM): protects
survival of sympathetic cultures exposed to UV irradiation (sympathetic neurons [4]; 50 μM, pretreated 16 hr): ineffective
concentration required to be fully protective (PC12 cells [7]; serum withdrawal, one day): 50 µM

CC[C@H](C)[C@H](N)C(=O)N[C@@H](CCC(N)=O)C(=O)N[C@@H](C)C(=O)N[C@@H](CSSC[C@H](N)C(=O)N[C@@H](CCCNC(=N)N)C(=O)N[C@@H](CCC(N)=O)C(=O)N[C@H](C(=O)N[C@@H](CCCCN)C(=O)N[C@H](C(=O)N[C@@H](Cc1c[nH]c2ccccc12)C(=O)N[C@@H](Cc1ccccc1)C(=O)N[C@@H](CCC(N)=O)C(=O)N[C@@H](CC(N)=O)C(=O)N[C@@H](CCCNC(=N)N)C(=O)N[C@@H](CCCNC(=N)N)C(=O)N[C@@H](CCSC)C(=O)N[C@@H](CCCCN)C(=O)N[C@@H](Cc1c[nH]c2ccccc12)C(=O)N[C@@H](CCCCN)C(=O)N[C@@H](CCCCN)C(=O)O)[C@@H](C)CC)[C@@H](C)CC)C(=O)N[C@@H](CCCNC(=N)N)C(=O)NCC(=O)O [V-ICEinh]
death of sympathetic neurons depleted of SOD1 (sympathetic neurons [1]; V-linked peptides): blocked death
increase in IL-1β secretion per cell after SOD1 down-regulation (IL-1β; V-ICEinh 25 nM for V-ASOD1 treatment): blocked
death of AraC-treated sympathetic neurons (sympathetic neurons [2]; 200 nM, AraC 100 μM): blocked death
effect on the capacity of ASOD1 to lower cellular SOD1 (PC12 cells [5]): no effect
dose required for maximal protection (PC12 cells [5]; V-ASOD1 50 nM, one day): 0.025 to 0.05 µM
protection from death induced by down-regulation of SOD1 (PC12 cells [5]; naive and NGF-treated PC12 cells, V-ASOD1 50 nM, one day): protects
time for which death was retarded (sympathetic neurons [6]; 50 nM, NGF-deprived): at least 6 days
time of complete protection from death (sympathetic neurons [6]; 50 nM, NGF-deprived): 3 days
death of sympathetic neurons exposed to camptothecin (sympathetic neurons [8]): blocked death
protection from NGF deprivation (sympathetic neurons [3]; 200 nM, pretreated 18 hr): protected
death of sympathetic neurons exposed to UV (sympathetic neurons [4]; 200 nM, pretreated 18 hr): blocked death
time of partial protection (PC12 cells [7]; naive and primed PC12 cells, serum/NGF withdrawal): at least 8 days
peptide concentration giving complete protection from death (PC12 cells [7]; naive and primed PC12 cells, serum/NGF withdrawal, 24 hours): 200 to 400 nM

CC(C)[C@H](NC(=O)[C@H](Cc1ccc(O)cc1)NC(=O)OCc1ccccc1)C(=O)N[C@@H](C)C(=O)N[C@@H](CC(=O)O)C(=O)CCl [ZYVAD-CMK, ZYVAD-chloromethylketone]
protection from SOD1 down-regulation (PC12 cells [5]; 50 μM): full protection
protection from NGF deprivation (sympathetic neurons [6]; 250 μM): no effect
protection from trophic factor withdrawal (PC12 cells [7]; 250 μM): only partially effective; also recorded: partial protection

CC(=O)N[C@@H](Cc1ccc(O)cc1)C(=O)N[C@H](C(=O)N[C@@H](C)C(=O)N[C@@H](CC(=O)O)C(=O)CCl)C(C)C [acYVAD-cmk]
death evoked by SOD1 depletion (sympathetic neurons [1]; 250 μM, two days, ASOD1 with SNAP 100 μM): blocks death
death due to NGF deprivation (sympathetic neurons [3]; 250 μM, two days): not death due to NGF deprivation

Cn1cnc2nc(NCCO)nc(NCc3ccccc3)c21 [isoolomoucine]
survival of AraC-treated sympathetic neurons (sympathetic neurons [2]; AraC 100 μM): ineffective
survival of UV-treated sympathetic neurons (sympathetic neurons [4]): nearly ineffective

B1: rmIL-1Ra: IL-1 receptor antagonist (protein, UniProt P25085 27-178, looked up)
Interleukin-1 receptor …: RPSGKRPCKMQAFRIWDTNQKTFYLRNNQLIAGYLQGPNIKLEEKIDMVPIDLHSVFLGIHGGKLCLSCAKSGDDIKLQLEEVNITDLSKNKEEDKRFTFIRSEKGPTTSFESAACPGWFLCTTLEADRPVSLTNTPEEPLIVTKFYFQEDQ
suppression of cell death of V-ASOD1 treated PC12 cells (PC12 cells [5]; 100 ng/ml): completely suppressed cell death
protection from trophic factor withdrawal (PC12 cells [7]; 10,000 ng/ml, one day): improved survival under these conditions only modestly

B2: NGF: nerve growth factor (mouse NGF) (protein, UniProt P01139 122-241, looked up)
Beta-nerve growth factor: SSTHPVFHMGEFSVCDSVSVWVGDKTTATDIKGKEVTVLAEVNINNSVFRQYFFETKCRASNPVESGCRGIDSKHWNSYCTTTHTFVKALTTDEKQAAWRFIRIDTACVCVLSRKATRRG
increase in IL-1β secretion (IL-1β; cells treated with NGF): 4 fold

Source: patent US6794126B2, “Methods for preventing or inhibiting neuronal cell death” (The Trustees of Columbia University in the City of New York, priority 1996, dated 2004)
